What was measured:
C2C12 myotubes [1] = test: Fura-2 Ca2+ ratios in C2C12 myotubes, functional screen with TRPV agonists; type: cell-based; conditions: for intracellular (cytosolic) Ca2+ rise: Fura-2 Ca2+ ratios
Procedure: FIG. 2. Fura-2 Ca^2+ Ratios in C2C12 myotubes in response to known activators of TRPV1 (Capsaicin), TRPV3 (Thymol, Carvacrol, 2-APB), and TRPV4 (GSK 101). ** p<0.01 compared to vehicle Ca^2+ response.
To determine the physiological significance of these TRPV ion channels in skeletal muscle Ca^2+ homeostasis, a functional screen for the magnitude of intracellular Ca^2+ rise was performed using known agonists for TRPV1 (Capsaicin), TRPV3 (Carvacrol/Thymol/2-APB) and TRPV4 (GSK101) in C2C12 myotubes (FIG. 2). C2C12 myoblasts were grown to confluency and then differentiated into myotubes by culturing in Dulbecco's Modified Eagles Medium (DMEM) with 2% horse serum for 5 days. Measurement of Fura-2 Ca2+ ratios in C2C12 myotubes was performed as described previously in cultured adipocytes (Ye L., et al., TRPV4 is a regulator of adipose oxidative metabolism, inflammation, and energy homeostasis. Cell. 2012; 151:96-110).

[2] = tested on: flexor digitorum brevis (FDB) muscle fibers; test: Confocal calcium imaging (Fluo-4AM) of freshly isolated FDB muscle fibers; type: cell-based, mouse; conditions: for effects on Ca2+ cycling: freshly isolated muscle fibers, carvacrol 100, 200, 500 μM, thymol 50, 100, 200 μM
Procedure: FIG. 3. Confocal calcium imaging (Fluo-4AM) of freshly isolated mouse flexor digitorum brevis (FDB) muscle fibers in response to sequential applications of carvacrol (A: 100, 200 and 500 μM) and thymol (B: 50, 100 and 200 μM).
These findings were further validated in freshly isolated mouse flexor digitorum brevis (FDB) muscle fibers (FIG. 3) to confirm the result in primary muscle cells. Primary skeletal muscle fibers were isolated from flexor digitorum brevis (FDB) muscle. In brief, FDB muscles were dissected and mechanically cleaned of connective tissue in a standard Ringer's solution containing (in mM): 146 NaCl, 5 KCl, 2 CaCl2, 1 MgCl2, and 10 HEPES, pH 7.4 with NaOH. Muscles were then shaken for 40 min at 37° C. in 1 mg/ml of collagenase A (Roche) dissolved in Ringer's solution. After collagenase treatment, individual FDB fibers were dissociated by gentle trituration using Pasteur pipettes of decreasing bore size. […] All experiments were conducted at room temperature on fibers obtained within 8 h of isolation. Confocal calcium imaging of FDB fibers were performed as described previously in cardiac myocytes but at room temperature (23° C.) (Sah R., et al., Ion channel-kinase TRPM7 is required for maintaining cardiac automaticity. Proc Natl Acad Sci USA. 2013; 110:E3037-46).

IGF-1 = test: qRT-PCR transcriptional screen in C2C12 myotubes: IGF-1; type: cell-based; conditions: 48 hrs
Procedure: (§1) FIG. 5. […] A. fold change after 48 hrs carvacrol (0, 5, and 100 μM, from left to right for each grouping); and B. thymol (0, 5, and 50 μM, from left to right for each grouping).
(§2) A qRT-PCR based transcriptional screen was then performed to assess for induction of the classical genes associated with exercise-induced changes in skeletal muscle, including growth, and enhanced endurance (FIG. 5). Transcriptional analysis of candidate genes was performed as described previously (Sah R., et al., The Timing of Myocardial Trpm7 Deletion during Cardiogenesis Variably Disrupts Adult Ventricular Function, Conduction and Repolarization. Circulation. 2013; Sah R., et al., Ion channel-kinase TRPM7 is required for maintaining cardiac automaticity. Proc Natl Acad Sci USA. 2013; 110:E3037-46) using the following primers: […]

C2C12 myotubes [3] = test: Myotube hypertrophy by immunostaining and confocal imaging (myotube diameter); type: cell-based; conditions: 50 μM for 48 hours
Procedure: FIG. 4. A. Confocal images immunostained C2C12 myotubes (staining skeletal actin and Topro-3 nuclear stain) incubated for 48 hrs in vehicle (left) or carvacrol 50 μM (right). B. quantification of myotube width. NT—not treated, Vehicle—DMSO.
It was next examined whether the increase in cytosolic Ca^2+ induced by this class of compounds could induce cellular hypertrophy in vitro in C2C12 myotubes as would occur with augmented Ca^2+ release during exercise. Immunostaining and confocal imaging of C2C12 myotubes were performed as described previously in cardiac myocytes (Sah R., et al., The Timing of Myocardial Trpm7 Deletion during Cardiogenesis Variably Disrupts Adult Ventricular Function, Conduction and Repolarization. Circulation. 2013).

PGC1α = test: qRT-PCR transcriptional screen in C2C12 myotubes: PGC1α; type: cell-based; conditions: 48 hrs
Procedure: as §1, §2

C57/B6 mice [4] = test: Core body temperature by infra-red thermal imaging after mild exercise; type: in vivo, mouse; conditions: sedentary C57/B6 mice, 20 mg/kg/day oral gavage, 5 weeks
Procedure: FIG. 7. Top: Representative thermal images of vehicle (left) and thymol (right) treated mice. Bottom: Mean data of temperature of upper and lower body in vehicle-treated vs thymol treated mice.
(§3) Based on these strong in vitro data, in vivo studies were then performed to determine both safety and efficacy of using thymol and/or carvacrol to mimic the effects of exercise on skeletal muscle function. […] Accordingly, the pilot studies were limited to thymol alone and treated sedentary C57/B6 mice with either vehicle (Sunflower oil) or Thymol (20 mg/kg/day) by oral gavage for 5 weeks and then assessed exercise capacity by treadmill testing, core body temperature by infra-red thermal imaging, and skeletal muscle hypertrophy by muscle weight. […] J Gen Physiol. 2014; 143:119-34)) after mild exercise (FIG. 7) and an increase in gastrocnemius muscle weight (weight bearing muscles—FIG. 8).

C57/B6 mice [5] = test: Exercise tolerance by treadmill testing of sedentary mice; type: in vivo, mouse; conditions: 20 mg/kg/day oral gavage, 5 weeks
Procedure: FIG. 6. Exercise tolerance measured by treadmill testing of C57/B6 mice before and after 5 weeks of either vehicle or thymol (20 mg/kg/day). A. Exercise protocol and tolerance after vehicle or thymol. B. Mean exercise tolerance pre and post treatment.
as §3

C57/B6 mice [6] = test: Skeletal muscle hypertrophy by muscle weight; type: in vivo, mouse; conditions: sedentary C57/B6 mice, 20 mg/kg/day oral gavage, 5 weeks
Procedure: FIG. 8: Skeletal muscle weight in sedentary C57/B6 mice after 5 weeks of treatment with either vehicle or thymol (for each group, the left bar represents vehicle and the right bar represents thymol).
as §3

TRPV3 knock-out mice = test: In vivo experiments repeated in TRPV3 knock-out mice; parameters: species or system mouse; conditions: TRPV3 KO mice, 20 mg/kg/day, 5 weeks
Procedure: FIG. 9: Exercise tolerance measured by treadmill testing of TRPV3 KO mice before and after 5 weeks of either vehicle or thymol (20 mg/kg/day). A. Exercise protocol and tolerance after vehicle or thymol. B. Mean exercise tolerance pre and post treatment.
as §3

SMILES	intracellular (cytosolic) Ca2+ rise (C2C12 myotubes [1])	effects on Ca2+ cycling [2]	induction of IGF-1 (IGF-1) [fold]	induction of PGC1α (PGC1α) [fold]	other results
NCCOB(c1ccccc1)c1ccccc1 [2-APB, reference compound]	reproducible and reversible increases				
COc1cc(CNC(=O)CCCC/C=C/C(C)C)ccc1O [Capsaicin, reference compound]	essentially no effect				
CC(C)C[C@H](NC(=O)c1cc2ccccc2s1)C(=O)N1CCN(C(=O)[C@H](CO)NS(=O)(=O)c2ccc(Cl)cc2Cl)CC1 [GSK101, reference compound]	essentially no effect				
Cc1ccc(C(C)C)cc1O [carvacrol, 2-methyl-5-isopropylphenol]	reproducible and reversible increases	clear effects	~8	13.8	myotube hypertrophy (increase in myotube diameter) (C2C12 myotubes [3]): significant myotube hypertrophy
Cc1ccc(C(C)C)c(O)c1 [thymol, 2-isopropyl-5-methylphenol]	reproducible and reversible increases	clear effects	~4	3	core body temperature after mild exercise (C57/B6 mice [4]): significant increase; potency at augmenting cytosolic Ca2+ relative to carvacrol ([2]; freshly isolated mouse FDB fibers): approximately twice as potent as carvacrol; augmented exercise capacity over vehicle treated mice (C57/B6 mice [5]): 37%; potency at augmenting cytosolic Ca2+ relative to carvacrol (C2C12 myotubes [1]): approximately twice as potent as carvacrol; gastrocnemius muscle weight (C57/B6 mice [6]): increase; augmented thermogenesis in TRPV3 knock-out mice (TRPV3 knock-out mice): abolished; enhanced exercise capacity in TRPV3 knock-out mice (TRPV3 knock-out mice): abolished; gastrocnemius hypertrophy in TRPV3 knock-out mice (TRPV3 knock-out mice): abolished

Reference: US11135178B2, “Thymol and carvacol for use in medicine” (UNIVERSITY OF IOWA RESEARCH FOUNDATION, priority 2014, dated 2021)
